# Measured values from patent publication US20120289432A1, “PI3K MODULATORS, RHO KINASE MODULATORS AND METHODS OF IDENTIFYING AND USING SAME” (Corning Incorporated, priority 2009, published 2012).
# Entries after “also recorded” stand apart in the source; their conditions may differ.
# What was measured:
# Assay type in all cases: cell-based, human
# HepG2 cells [1] = assay: Label-free RWG biosensor DMR assay, agonism mode, HepG2 cells; details: primary profile
# Protocol: (§1) Cells were typically grown using ˜1 to 2×10^4 cells per well at passage 3 to 15 suspended in 50 μl of the corresponding culture medium in the biosensor microplate, and were cultured at 37° C. under air/5% CO2 for ˜1 day. Except for A431 which underwent one day culture followed by one starvation in serum free medium, all other cells were directly assayed without starvation. The confluency for all cells at the time of assays was ˜95% to 100%.
# (§2) Epic® beta version wavelength interrogation system (Corning Inc., Corning, N.Y.) was used for whole cell sensing. This system consists of a temperature-control unit, an optical detection unit, and an on-board liquid handling unit with robotics. The detection unit is centered on integrated fiber optics, and enables kinetic measures of cellular responses with a time interval of ˜15 sec.
# (§3) For biosensor cellular assays, molecule solutions were made by diluting the stored concentrated solutions with the HBSS (1× Hanks balanced salt solution, plus 20 mM Hepes, pH 7.1), and transferred into a 384 well polypropylene molecule storage plate to prepare a molecule source plate. […] Both the cell assay plate and the molecule and marker source plate(s) were then incubated in the hotel of the reader system. After ˜1 hr of incubation the baseline wavelengths of all biosensors in the cell assay microplate were recorded and normalized to zero. […]
# A549 cells [2] = assay: DMR modulation of marker-induced responses (two-step assay) in A549 cells; details: for modulation of the pinacidil response in A549 cells: compound pretreatment ~1 hr (10 micromolar), then pinacidil 10 micromolar
# Protocol: The index was generated after normalizing each marker-induced DMR signal in the presence of the inhibitor to its corresponding signal in the absence of the inhibitor. The percentage of modulation for each marker by the inhibitor was plotted as a function of the marker. As shown from left to right in a sequential order, the DMR events used for the basis of the modulation percentage calculation are: the N-DMR (50 min after stimulation) for pinacidil in A549, the P-DMR (50 min after stimulation) for forskolin in A549, the early P-DMR event (˜10 min after histamine stimulation) and the late P-DMR event (˜30 min after histamine stimulation) for histamine in A549, and the early P-DMR event (˜5 min after EGF stimulation) and the subsequent N-DMR event (˜30 min after EGF stimulation) for EGF in A431 cells. In all cases, the amplitudes of respective DMR events were used as the basis to calculate the percentages of modulation by the PI3K inhibitors. The same procedure was used to generate FIGS. 8 to 14.
# as §1
# (§4) For biosensor cellular assays, molecule solutions were made by diluting the stored concentrated solutions with the HBSS (1× Hanks balanced salt solution, plus 20 mM Hepes, pH 7.1), and transferred into a 384 well polypropylene molecule storage plate to prepare a molecule source plate. Both molecule and marker source plates were made separately when a two-step assay was performed. In parallel, the cells were washed twice with the HBSS and maintained in 30 μl of the HBSS to prepare a cell assay plate. Both the cell assay plate and the molecule and marker source plate(s) were then incubated in the hotel of the reader system. After ˜1 hr of incubation the baseline wavelengths of all biosensors in the cell assay microplate were recorded and normalized to zero. Afterwards, a 2 to 10 minute continuous recording was carried out to establish a baseline, and to ensure that the cells reached a steady state. Cellular responses were then triggered by pipetting 10 μl of the marker solutions into the cell assay plate using the on-board liquid handler.
# To study the influence of molecules on a marker-induced response, a second stimulation with the marker at a fixed dose (typically at EC80 or EC100) was applied. The resonant wavelengths of all biosensors in the microplate were normalized again to establish a second baseline, right before the second stimulation. The two stimulations were usually separated by ˜1 hr.
# (§5) All studies were carried out at a controlled temperature (28° C.). At least two independent sets of experiments, each with at least three replicates, were performed.
# A549 cells [3] = assay: Desensitization of pretreated A549 cells to stimulation with ROCK inhibitor Y-27632; details: pretreatment 10 micromolar ~1 hour, then Y-27632 at EC100 (10 micromolar)
# Excerpt: FIG. 19 The optical biosensor DMR signals of human lung cancer cell line A549 in response to a well-known Rho kinase inhibitor […] (10 micromolar) in the absence (“buffer”) and presence of two compounds (the Rho kinase inhibitor Y27632, and another Rho kinase inhibitor “compound”). Either of these two inhibitors at 10 micromolar was used to pretreat the A549 cells for ˜1 hr, before the stimulation with Y27632. The desensitization of cells to the second stimulation with Y27632 is an indicator that the compound used for the pretreatment of the cells is a Rho kinase inhibitor.
# For biosensor cellular assays, molecule solutions were made by diluting the stored concentrated solutions with the HBSS (1× Hanks balanced salt solution, plus 20 mM Hepes, pH 7.1), and transferred into a 384 well polypropylene molecule storage plate to prepare a molecule source plate. Both molecule and marker source plates were made separately when a two-step assay was performed. In parallel, the cells were washed twice with the HBSS and maintained in 30 μl of the HBSS to prepare a cell assay plate. Both the cell assay plate and the molecule and marker source plate(s) were then incubated in the hotel of the reader system. After ˜1 hr of incubation the baseline wavelengths of all biosensors in the cell assay microplate were recorded and normalized to zero. […]
# HepG2 cells [4] = assay: DMR modulation of the ODN2006-induced response in HepG2 cells; details: inhibitor 10 micromolar, ODN2006 500 nM
# Protocol: as §1
# as §4, with “Cellular responses were then triggered by pipetting 10 μl of the marker solutions into the cell assay plate using the on-board liquid handler.” left out
# HT-29 cells = assay: Label-free RWG biosensor DMR assay, agonism mode, HT-29 cells; details: primary profile
# Protocol: as §1, §2, §3
# A549 cells [5] = assay: Label-free RWG (Epic) biosensor DMR assay, agonism mode, A549 cells; details: primary profile
# Protocol: as §1, §2, §4, §5
structure (smiles),measurement,setting,value
C[C@@H](N)[C@H]1CC[C@H](C(=O)Nc2ccncc2)CC1 [Y-27632],DMR (biosensor) signal of the compound in HepG2 cells,HepG2 cells [1],net-zero DMR signal
same,modulation of the pinacidil response in A549 cells,A549 cells [2],complete or significant attenuation; also recorded: attenuated
same,modulation of the pinacidil response in A549 cells,A549 cells [2]; listed as Y027632,dose-dependently attenuate
same,modulation of the pinacidil response in A549 cells,A549 cells [2]; listed as Y27632,fully attenuated; also recorded: almost completely attenuated
same,modulation of the forskolin response (P-DMR) in A549 cells,"A549 cells [2]; inhibitor 10 micromolar, forskolin 16 micromolar",potentiated
same,modulation of the histamine response (early and late P-DMR) in A549 cells,"A549 cells [2]; inhibitor 10 micromolar, histamine 10 micromolar",potentiated
same,modulation of the PMA response in A549 cells,A549 cells [2]; pretreatment 10 micromolar,potentiated
same,modulation of the SLIGKV response in A549 cells,A549 cells [2]; pretreatment 10 micromolar,potentiated
same,modulation of the poly(IC) response in A549 cells,A549 cells [2]; pretreatment 10 micromolar,potentiated
same,desensitization of A549 cells to second stimulation with Y-27632,A549 cells [3],significantly caused the cells desensitize
same,modulation of the ODN2006 DMR signal in HepG2 cells,HepG2 cells [4],potentiated
same,DMR (biosensor) signal of the compound in HT-29 cells,HT-29 cells,"detectable, and dose-dependent biosensor signals"
same,DMR (biosensor) signal of the compound in A549 cells,A549 cells [5],"detectable, and dose-dependent biosensor signals; also recorded: characteristic negative DMR signal"
